Assay: mn = molality of the nth substance listed, in mol/kg
Settings: 101.3 kPa, Liquid; for viscosity: Capillary tube (Ostwald / Ubbelohde) method; for mass density: Vibrating tube method

Cn1cnc2c1c(=O)[nH]c(=O)n2C [1H-purine-2,6-dione, 3,7-dihydro-3,7-dimethyl-] + O
Settings | mass density, 288.15 K [kg/m3] | mass density, 298.15 K [kg/m3] | mass density, 308.15 K [kg/m3] | mass density, 318.15 K [kg/m3] | viscosity, 288.15 K [mPa·s] | viscosity, 298.15 K [mPa·s] | viscosity, 308.15 K [mPa·s] | viscosity, 318.15 K [mPa·s]
m1 = 0.00051 | 999.157 | 997.073 | 994.088 | 990.268 | 1.138 | 0.891 | 0.72 | 0.597
m1 = 0.0007 | 999.167 | 997.083 | 994.097 | 990.277 | 1.139 | 0.891 | 0.72 | 0.597
m1 = 0.0009 | 999.177 | 997.093 | 994.107 | 990.287 | 1.139 | 0.891 | 0.72 | 0.597
m1 = 0.00098 | 999.182 | 997.097 | 994.111 | 990.291 | 1.139 | 0.891 | 0.72 | 0.597
m1 = 0.00123 | 999.195 | 997.11 | 994.123 | 990.303 | 1.139 | 0.891 | 0.72 | 0.597
m1 = 0.00147 | – | – | – | – | 1.139 | 0.891 | 0.72 | 0.597
m1 = 0.00148 | 999.209 | 997.123 | 994.135 | 990.314 | – | – | – | –
m1 = 0.00182 | – | – | – | – | 1.139 | 0.891 | 0.72 | 0.597
m1 = 0.00183 | 999.228 | 997.141 | 994.152 | 990.331 | – | – | – | –
m1 = 0.00212 | – | – | – | – | 1.139 | 0.891 | 0.72 | 0.597
m1 = 0.00213 | 999.244 | 997.156 | 994.167 | 990.346 | – | – | – | –

Cn1c(=O)c2[nH]cnc2n(C)c1=O [3,7-dihydro-1,3-dimethyl-1H-purine-2,6-dione] + O
Settings | mass density, 288.15 K [kg/m3] | mass density, 298.15 K [kg/m3] | mass density, 308.15 K [kg/m3] | mass density, 318.15 K [kg/m3] | viscosity, 288.15 K [mPa·s] | viscosity, 298.15 K [mPa·s] | viscosity, 308.15 K [mPa·s] | viscosity, 318.15 K [mPa·s]
m1 = 0.00208 | 999.241 | 997.153 | 994.165 | 990.343 | – | – | – | –
m1 = 0.00213 | – | – | – | – | 1.139 | 0.891 | 0.719 | 0.597
m1 = 0.00284 | – | – | – | – | 1.139 | 0.892 | 0.72 | 0.597
m1 = 0.00285 | 999.283 | 997.192 | 994.204 | 990.379 | – | – | – | –
m1 = 0.00378 | 999.333 | 997.239 | 994.25 | 990.423 | – | – | – | –
m1 = 0.00394 | – | – | – | – | 1.14 | 0.892 | 0.72 | 0.598
m1 = 0.00479 | 999.388 | 997.291 | 994.3 | 990.472 | – | – | – | –
m1 = 0.00519 | – | – | – | – | 1.14 | 0.892 | 0.721 | 0.598
m1 = 0.00578 | 999.443 | 997.341 | 994.35 | 990.519 | – | – | – | –
m1 = 0.00617 | – | – | – | – | 1.141 | 0.893 | 0.722 | 0.599
m1 = 0.00689 | – | – | – | – | 1.141 | 0.893 | 0.722 | 0.599
m1 = 0.00699 | 999.509 | 997.404 | 994.41 | 990.578 | – | – | – | –
m1 = 0.00776 | 999.551 | 997.443 | 994.448 | 990.614 | – | – | – | –
m1 = 0.00819 | – | – | – | – | 1.142 | 0.894 | 0.723 | 0.599
m1 = 0.00921 | – | – | – | – | 1.142 | 0.895 | 0.723 | 0.6
m1 = 0.00934 | 999.638 | 997.526 | 994.528 | 990.691 | – | – | – | –
m1 = 0.00986 | 999.667 | 997.554 | 994.554 | 990.716 | – | – | – | –

Cn1c(=O)c2c(ncn2C)n(C)c1=O [caffeine] + O
Settings | mass density, 288.15 K [kg/m3] | mass density, 298.15 K [kg/m3] | mass density, 308.15 K [kg/m3] | mass density, 318.15 K [kg/m3] | viscosity, 288.15 K [mPa·s] | viscosity, 298.15 K [mPa·s] | viscosity, 308.15 K [mPa·s] | viscosity, 318.15 K [mPa·s]
m1 = 0.00508 | – | – | – | – | 1.14 | 0.895 | 0.723 | 0.599
m1 = 0.0051 | 999.404 | 997.304 | 994.303 | 990.464 | – | – | – | –
m1 = 0.00693 | – | – | – | – | 1.142 | 0.896 | 0.724 | 0.6
m1 = 0.00695 | 999.505 | 997.399 | 994.39 | 990.545 | – | – | – | –
m1 = 0.009 | – | – | – | – | 1.144 | 0.896 | 0.724 | 0.601
m1 = 0.00902 | 999.619 | 997.504 | 994.488 | 990.637 | – | – | – | –
m1 = 0.01986 | – | – | – | – | 1.147 | 0.9 | 0.728 | 0.606
m1 = 0.01993 | 1000.22 | 998.06 | 995.013 | 991.121 | – | – | – | –
m1 = 0.02978 | – | – | – | – | 1.152 | 0.905 | 0.732 | 0.609
m1 = 0.02992 | 1000.77 | 998.576 | 995.497 | 991.571 | – | – | – | –
m1 = 0.03531 | 1001.07 | 998.853 | 995.759 | 991.812 | – | – | – | –
m1 = 0.03533 | – | – | – | – | 1.154 | 0.907 | 0.735 | 0.611
m1 = 0.03983 | – | – | – | – | 1.156 | 0.91 | 0.737 | 0.613
m1 = 0.04008 | 1001.34 | 999.101 | 996.001 | 992.025 | – | – | – | –
m1 = 0.04953 | – | – | – | – | 1.162 | 0.914 | 0.741 | 0.617
m1 = 0.04992 | 1001.89 | 999.619 | 996.484 | 992.483 | – | – | – | –

— the NIST ThermoML archive (doi:10.1021/acs.jced.7b00520)
